# Data as given in ChEMBL document CHEMBL1201862, “PubChem BioAssay data set” (2004).
# Active and inactive are the calls of the source.
# Key:
# [1] = M. tuberculosis H37Rv growth inhibitors, H37Rv strain (AID 1626); assay type: functional
# [2] = biological target: T1, Carboxy-terminal domain RNA polymerase II polypeptide A small phosphatase 1 (Homo sapiens, UniProt Q9GZU7); experiment: CTDSP1 inhibitors, concentration-response, biochemical, absorbance readout, ultra-high-throughput screen actives (AID 540297); assay type: functional
# T1 sequence (Q9GZU7 whole entry): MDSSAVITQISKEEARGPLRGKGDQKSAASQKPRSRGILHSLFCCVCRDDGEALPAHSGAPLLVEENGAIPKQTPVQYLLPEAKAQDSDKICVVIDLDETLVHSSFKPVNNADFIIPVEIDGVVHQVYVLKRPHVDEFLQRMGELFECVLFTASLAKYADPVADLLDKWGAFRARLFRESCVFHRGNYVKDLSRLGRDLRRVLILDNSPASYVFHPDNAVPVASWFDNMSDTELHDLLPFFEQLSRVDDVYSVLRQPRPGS
# Bcl-2-like protein 10 = biological target: T2, Bcl-2-like protein 10 (Homo sapiens, UniProt Q9HD36); experiment: Bcl-B/TR3 peptide binding disruption – biochemical, fluorescence polarization, FITC-TR3 peptide, selectivity assay for Bfl-1 inhibitor project, primary screen (AID 748);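 also: fluorescence polarization from a fluorescein-labelled TR3 peptide binding purified Bcl-B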
# T2 sequence (Q9HD36 whole entry): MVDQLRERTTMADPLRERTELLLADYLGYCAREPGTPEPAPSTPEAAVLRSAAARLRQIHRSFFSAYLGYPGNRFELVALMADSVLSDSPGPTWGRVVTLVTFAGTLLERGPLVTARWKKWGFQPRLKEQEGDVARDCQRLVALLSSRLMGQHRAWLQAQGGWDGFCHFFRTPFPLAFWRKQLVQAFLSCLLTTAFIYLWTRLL
# Mucolipin-3 = biological target: T3, Mucolipin-3 (Homo sapiens, UniProt Q8TDD5); experiment: Dose response cell-based high-throughput screening assay for agonists of the transient receptor potential channel ML3 (TRPML3). [Related pubchem assays: 1526, 1424, 1448 ]; assay type: functional
# T3 sequence (Q8TDD5 whole entry): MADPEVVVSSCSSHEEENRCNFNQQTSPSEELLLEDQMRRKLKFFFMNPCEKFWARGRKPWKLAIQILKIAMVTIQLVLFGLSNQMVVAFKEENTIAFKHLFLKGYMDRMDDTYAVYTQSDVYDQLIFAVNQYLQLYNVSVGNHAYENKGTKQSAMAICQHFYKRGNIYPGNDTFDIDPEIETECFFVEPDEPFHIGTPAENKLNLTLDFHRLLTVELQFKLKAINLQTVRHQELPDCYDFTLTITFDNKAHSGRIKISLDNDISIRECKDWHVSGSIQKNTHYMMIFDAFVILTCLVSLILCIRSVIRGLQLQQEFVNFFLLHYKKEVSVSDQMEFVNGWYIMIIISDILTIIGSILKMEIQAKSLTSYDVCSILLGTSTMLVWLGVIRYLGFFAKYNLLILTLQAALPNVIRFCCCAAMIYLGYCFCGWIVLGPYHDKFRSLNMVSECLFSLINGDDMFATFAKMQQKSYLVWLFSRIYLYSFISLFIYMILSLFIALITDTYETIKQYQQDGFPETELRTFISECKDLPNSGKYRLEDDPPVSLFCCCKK
# Ion channel NompC = Ion channel NompC (Danio rerio, UniProt Q7T1G6); experiment: Fluorescence counterscreen assay for TRPML3 agonists: dose response cell-based high-throughput screening assay to identify agonists of the transient receptor potential channel N1 (TRPN1). [Related pubchem assays: 1526, 1424, 1448 ]; assay type: functional
# [3] = biological target: T4, DNA dC->dU-editing enzyme APOBEC-3G (Homo sapiens, UniProt Q9HC16); assay type: functional
# T4 sequence (Q9HC16 whole entry): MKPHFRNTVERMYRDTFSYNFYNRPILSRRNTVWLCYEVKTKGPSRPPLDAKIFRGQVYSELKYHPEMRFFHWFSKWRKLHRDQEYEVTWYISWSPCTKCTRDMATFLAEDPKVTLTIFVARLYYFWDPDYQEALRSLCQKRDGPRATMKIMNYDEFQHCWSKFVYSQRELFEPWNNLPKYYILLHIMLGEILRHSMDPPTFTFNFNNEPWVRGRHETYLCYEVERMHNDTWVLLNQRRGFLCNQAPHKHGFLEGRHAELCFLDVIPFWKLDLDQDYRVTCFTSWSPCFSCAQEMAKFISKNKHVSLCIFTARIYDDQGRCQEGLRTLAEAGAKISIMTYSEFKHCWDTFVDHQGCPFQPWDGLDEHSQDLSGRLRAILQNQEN
# cells = assay type: functional, cell-based; settings: HEK-CNG
# [4] = biological target: T5, DNA dC->dU-editing enzyme APOBEC-3A (Homo sapiens, UniProt P31941); experiment: Dose Response confirmation of small molecule APOBEC3A DNA Deaminase Inhibitors via a fluorescence-based single-stranded DNA deaminase assay. [Related pubchem assays (depositor defined):AID493011, AID493024]; assay type: functional
# T5 sequence (P31941 whole entry): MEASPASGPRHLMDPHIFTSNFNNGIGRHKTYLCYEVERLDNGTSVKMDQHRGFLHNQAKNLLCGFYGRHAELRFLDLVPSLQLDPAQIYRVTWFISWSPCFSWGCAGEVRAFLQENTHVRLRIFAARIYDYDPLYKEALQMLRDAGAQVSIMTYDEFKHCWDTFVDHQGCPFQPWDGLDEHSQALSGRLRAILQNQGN
# Galanin receptor type 3 = Galanin receptor type 3 (Homo sapiens, UniProt O60755); experiment: Fluorescence-based cell-based primary high throughput dose response assay to identify antagonists of the Galanin Receptor 3 (GalR3).; assay type: functional
# Galanin receptor type 3, sequence (O60755 whole entry): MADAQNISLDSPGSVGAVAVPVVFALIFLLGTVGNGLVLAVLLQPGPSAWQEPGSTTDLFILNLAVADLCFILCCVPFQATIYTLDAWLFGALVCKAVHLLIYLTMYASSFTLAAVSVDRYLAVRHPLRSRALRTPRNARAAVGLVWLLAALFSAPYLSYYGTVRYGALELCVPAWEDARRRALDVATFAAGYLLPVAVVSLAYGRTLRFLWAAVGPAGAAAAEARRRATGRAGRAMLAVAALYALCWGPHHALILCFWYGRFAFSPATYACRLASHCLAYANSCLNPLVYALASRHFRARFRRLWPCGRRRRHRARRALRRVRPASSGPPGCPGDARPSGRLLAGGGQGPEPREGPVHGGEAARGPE
# [5] = biological target: G-protein coupled receptor 35 (Homo sapiens, UniProt Q9HC97); experiment: inhibition of zaprinast-stimulated GPR35 beta-arrestin translocation – imaging, U2OS, beta-arrestin-GFP, zaprinast agonist, primary screen (AID 2058); assay type: functional;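 also: antagonist potency meaning inhibition of agonist-induced arrestin redistribution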
# G-protein coupled receptor 35, sequence (Q9HC97 whole entry): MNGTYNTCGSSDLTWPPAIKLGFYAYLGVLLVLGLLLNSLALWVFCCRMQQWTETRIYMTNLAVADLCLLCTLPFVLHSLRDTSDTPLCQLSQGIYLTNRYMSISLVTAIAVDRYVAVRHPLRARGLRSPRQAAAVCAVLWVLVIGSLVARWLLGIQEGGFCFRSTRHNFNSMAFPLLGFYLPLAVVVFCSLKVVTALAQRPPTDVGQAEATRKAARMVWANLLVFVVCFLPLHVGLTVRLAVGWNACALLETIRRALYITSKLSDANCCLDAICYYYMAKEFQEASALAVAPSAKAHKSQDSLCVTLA
# HEK293 = experiment: EBV LMP1 TES2 canonical NF-kB signalling blockers – cell-based, HEK293, luciferase, cherry-pick, dose response (AID 588343); assay type: functional; settings: Homo sapiens
# [6] = biological target: T6, RNA-binding protein pos-1 (Caenorhabditis elegans, UniProt G5EF15); experiment: disruptors of C. elegans POS-1 RNA interaction – biochemical, fluorescence polarization, dose response (AID 1964);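 also: purified POS-1 fused to maltose binding protein made in E. coli; potency of compounds blocking POS-1 binding to fluorescent RNA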
# T6 sequence (G5EF15 whole entry): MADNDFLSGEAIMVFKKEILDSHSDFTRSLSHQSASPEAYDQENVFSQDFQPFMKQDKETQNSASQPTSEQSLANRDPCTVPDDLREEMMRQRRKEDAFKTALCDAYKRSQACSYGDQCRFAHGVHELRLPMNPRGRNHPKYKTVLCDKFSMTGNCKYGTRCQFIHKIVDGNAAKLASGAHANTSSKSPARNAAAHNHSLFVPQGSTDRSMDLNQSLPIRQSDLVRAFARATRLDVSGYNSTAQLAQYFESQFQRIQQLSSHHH
# [7] = biological target: T7, Zinc finger protein mex-5 (Caenorhabditis elegans, UniProt Q9XUB2); experiment: potency of MEX-5 RNA-binding blockers – biochemical, C. elegans, fluorescence polarization, dose response (AID 1960)
# T7 sequence (Q9XUB2 whole entry): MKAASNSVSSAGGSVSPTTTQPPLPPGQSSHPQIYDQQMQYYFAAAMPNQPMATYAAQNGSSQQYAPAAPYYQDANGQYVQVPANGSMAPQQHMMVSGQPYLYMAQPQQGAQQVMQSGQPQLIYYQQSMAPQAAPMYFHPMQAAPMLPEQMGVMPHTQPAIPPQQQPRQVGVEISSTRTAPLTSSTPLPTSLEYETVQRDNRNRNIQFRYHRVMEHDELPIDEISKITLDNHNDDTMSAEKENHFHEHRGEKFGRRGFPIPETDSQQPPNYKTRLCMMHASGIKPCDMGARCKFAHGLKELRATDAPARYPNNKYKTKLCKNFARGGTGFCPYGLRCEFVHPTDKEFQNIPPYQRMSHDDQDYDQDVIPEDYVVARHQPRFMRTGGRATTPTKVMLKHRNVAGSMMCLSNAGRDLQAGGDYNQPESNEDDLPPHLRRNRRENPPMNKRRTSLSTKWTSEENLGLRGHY
# Fatty acid synthase [8] = biological target: T8, Fatty acid synthase (Homo sapiens, UniProt P49327); experiment: inhibition of human FAS-TE enzyme activity – biochemical, endpoint fluorescence intensity, uHTS hits, dose response (AID 624327); assay type: functional;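 also: fluorescence from hydrolysis of an O-methyl fluorescein acyl ester substrate by the enzyme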
# T8 sequence (P49327 whole entry): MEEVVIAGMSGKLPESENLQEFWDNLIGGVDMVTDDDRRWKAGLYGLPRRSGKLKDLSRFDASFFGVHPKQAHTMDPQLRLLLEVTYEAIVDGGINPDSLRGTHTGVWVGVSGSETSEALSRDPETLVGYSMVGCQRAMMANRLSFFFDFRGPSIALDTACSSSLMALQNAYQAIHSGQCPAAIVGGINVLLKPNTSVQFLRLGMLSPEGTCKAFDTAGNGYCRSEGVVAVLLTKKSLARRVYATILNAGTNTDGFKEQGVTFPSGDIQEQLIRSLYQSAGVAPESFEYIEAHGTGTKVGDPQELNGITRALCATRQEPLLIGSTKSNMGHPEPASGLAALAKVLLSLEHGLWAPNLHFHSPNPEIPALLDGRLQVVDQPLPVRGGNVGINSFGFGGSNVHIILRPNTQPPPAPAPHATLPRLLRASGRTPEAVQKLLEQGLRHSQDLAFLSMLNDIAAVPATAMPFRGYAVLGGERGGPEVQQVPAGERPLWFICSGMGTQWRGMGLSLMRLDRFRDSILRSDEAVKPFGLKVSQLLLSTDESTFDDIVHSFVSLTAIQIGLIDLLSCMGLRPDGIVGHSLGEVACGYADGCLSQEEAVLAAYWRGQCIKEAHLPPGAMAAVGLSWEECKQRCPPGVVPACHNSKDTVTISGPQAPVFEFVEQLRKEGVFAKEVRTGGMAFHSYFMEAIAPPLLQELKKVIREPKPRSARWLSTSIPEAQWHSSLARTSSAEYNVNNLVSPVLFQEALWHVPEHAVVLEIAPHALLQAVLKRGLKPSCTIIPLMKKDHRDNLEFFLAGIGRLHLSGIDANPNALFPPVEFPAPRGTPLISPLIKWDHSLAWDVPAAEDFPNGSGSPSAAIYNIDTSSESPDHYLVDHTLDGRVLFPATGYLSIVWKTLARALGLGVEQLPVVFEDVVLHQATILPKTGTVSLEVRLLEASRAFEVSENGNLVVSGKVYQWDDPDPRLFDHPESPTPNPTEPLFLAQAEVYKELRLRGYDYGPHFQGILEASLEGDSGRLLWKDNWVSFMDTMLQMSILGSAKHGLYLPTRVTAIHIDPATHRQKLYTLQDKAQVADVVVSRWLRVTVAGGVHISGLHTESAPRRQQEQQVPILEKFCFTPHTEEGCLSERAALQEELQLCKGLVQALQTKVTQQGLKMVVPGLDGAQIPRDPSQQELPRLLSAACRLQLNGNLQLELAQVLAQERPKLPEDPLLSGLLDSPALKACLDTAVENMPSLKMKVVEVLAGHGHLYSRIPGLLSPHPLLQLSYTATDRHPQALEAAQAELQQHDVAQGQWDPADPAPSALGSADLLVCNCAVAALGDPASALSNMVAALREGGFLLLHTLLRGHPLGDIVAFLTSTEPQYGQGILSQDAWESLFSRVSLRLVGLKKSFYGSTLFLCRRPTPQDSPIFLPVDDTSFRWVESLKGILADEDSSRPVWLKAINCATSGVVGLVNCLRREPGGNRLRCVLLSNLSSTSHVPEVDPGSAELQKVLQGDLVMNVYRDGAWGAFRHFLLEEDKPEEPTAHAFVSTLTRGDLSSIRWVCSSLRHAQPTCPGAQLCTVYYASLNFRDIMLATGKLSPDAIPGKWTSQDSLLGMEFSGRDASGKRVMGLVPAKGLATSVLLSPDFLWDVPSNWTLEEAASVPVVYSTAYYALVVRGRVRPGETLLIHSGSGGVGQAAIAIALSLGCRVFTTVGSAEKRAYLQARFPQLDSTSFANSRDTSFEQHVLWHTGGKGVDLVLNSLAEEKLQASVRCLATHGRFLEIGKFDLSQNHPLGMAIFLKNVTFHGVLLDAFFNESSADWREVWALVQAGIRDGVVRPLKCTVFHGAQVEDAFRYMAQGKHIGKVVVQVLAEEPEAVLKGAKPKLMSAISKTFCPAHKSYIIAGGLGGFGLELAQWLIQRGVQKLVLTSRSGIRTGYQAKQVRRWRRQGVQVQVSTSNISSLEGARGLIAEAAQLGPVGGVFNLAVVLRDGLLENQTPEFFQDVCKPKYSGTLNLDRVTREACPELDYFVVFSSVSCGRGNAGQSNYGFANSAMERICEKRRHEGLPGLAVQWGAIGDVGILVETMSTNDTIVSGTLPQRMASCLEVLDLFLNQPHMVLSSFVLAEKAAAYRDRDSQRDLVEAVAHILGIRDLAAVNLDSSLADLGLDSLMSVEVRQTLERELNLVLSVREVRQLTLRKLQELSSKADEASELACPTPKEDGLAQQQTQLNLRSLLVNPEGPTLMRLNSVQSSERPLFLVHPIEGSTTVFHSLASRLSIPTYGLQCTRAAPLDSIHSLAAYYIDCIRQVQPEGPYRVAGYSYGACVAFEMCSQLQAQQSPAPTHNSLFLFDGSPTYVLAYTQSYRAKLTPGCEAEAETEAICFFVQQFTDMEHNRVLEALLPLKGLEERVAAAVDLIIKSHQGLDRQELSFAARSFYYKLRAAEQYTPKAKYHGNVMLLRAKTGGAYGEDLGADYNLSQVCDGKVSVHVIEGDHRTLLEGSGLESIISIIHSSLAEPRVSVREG
# [9] = biological target: T9, Probable nicotinate-nucleotide adenylyltransferase (Staphylococcus aureus (strain N315), UniProt P65502); assay type: functional, Staphylococcus aureus subsp. aureus N315; settings: read-out: IC50_Mean;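 as to IC50 Mean: confirmatory dose-response retesting of NadD inhibitor hits first found in an ultra-high-throughput screen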
# T9 sequence (P65502 whole entry): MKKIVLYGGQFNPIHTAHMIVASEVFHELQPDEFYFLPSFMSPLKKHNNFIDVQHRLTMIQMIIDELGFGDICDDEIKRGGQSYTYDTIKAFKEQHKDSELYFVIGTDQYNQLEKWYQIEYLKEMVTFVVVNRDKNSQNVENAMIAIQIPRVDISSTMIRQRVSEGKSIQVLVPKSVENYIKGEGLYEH
# [10] = biological target: T9, Probable nicotinate-nucleotide adenylyltransferase; assay type: functional, Staphylococcus aureus subsp. aureus N315
# [11] = CCR5-tropic HIV-1 fusion blockers – cell-based, CCR5-tropic Env, dose response (AID 2279); assay type: functional
# Fatty acid synthase [12] = biological target: T8, Fatty acid synthase; experiment: inhibition of human FAS-TE enzyme activity – biochemical, kinetic fluorescence intensity, dose response (AID 624326); assay type: functional;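 also: rate of fluorescence rise from hydrolysis of a fluorogenic O-methyl fluorescein ester substrate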
# [13] = biological target: T5, DNA dC->dU-editing enzyme APOBEC-3A; experiment: A3A deaminase inhibition for selectivity – biochemical, dose response (AID 504722); assay type: functional
# [14] = biological target: T4, DNA dC->dU-editing enzyme APOBEC-3G; experiment: Dose Response confirmation of small molecule APOBEC3G DNA Deaminase Inhibitors via a fluorescence-based single-stranded DNA deaminase assay. [Related pubchem assays (depositor defined):AID493012, AID493028]; assay type: functional
smiles,measurement,setting,value
COc1ccc(N)cc1-n1cnnn1,IC50,[1],> 100 µM (active)
O=C(COC(=O)c1cncc(Br)c1)NCc1ccco1,IC50,[2],4.6 µM (active)
same,IC50,Bcl-2-like protein 10,46.9 µM (active)
C[N+](C)(C)C/C=C1/COCO1,EC50,Mucolipin-3,4.76 µM (active)
same,EC50,Ion channel NompC,17.6 µM (not active)
same,IC50,[3],1.89 µM (active)
same,EC50,cells,> 29.9 µM (inactive)
same,IC50,[4],1.89 µM (active)
same,IC50,Galanin receptor type 3,> 29.9 µM (inactive)
CC1(C)Cc2c(ccc3ccccc23)/C(=C/C(=O)N2CCCCC2)N1,IC50,[5],11 µM (inactive)
same,AC50,HEK293,26.1 µM (active)
COc1cccc(C2C3CN(C)CC=C3C(C#N)=C(N)C2(C#N)C#N)c1OC (stereo unspecified),IC50,[5],2.74 µM (active)
same,EC50,[6],2.18 µM (inconclusive)
same,EC50,[7],8.49 µM (active)
COc1ccc(-c2csc(NC(=O)c3ccccc3NS(=O)(=O)c3ccc(C)cc3)n2)cc1,IC50,Fatty acid synthase [8],10.2 µM (active)
same,IC50,[9],60.1 µM (active)
same,IC50,[10],6.12 µM (active)
same,IC50,[11],3.03 µM (active)
same,IC50,Fatty acid synthase [12],6.07 µM (active)
COCCCn1c(S)nnc1-c1ccc(Cl)cc1,IC50,[13],> 100 µM (inactive)
same,IC50,[14],4.57 µM (active)
